In patent US10617694B2 (priority 2016, dated 2020):
Where two headings read alike, the source gives them in different places.

Legend:
[1] = system: patients with obstructive sleep apnea; experiment: Table 1 summary of efficacy and side effects in sleep apnea, compared with acetazolamide, topiramate and zonisamide data; type: in vivo, human; set-up: key to Side effect paresthesia (P) (scale 0-3) / Side effect cognitive dysfunction (C) (scale 0-3): 1 = none; 2 = low; 3 = medium; 4 = high; Reduction in AHI: concentration or dose not given beside the values; conditions: for Side effect total rating (T) (scale 0-3): T = (P + 2C)/3, Table 1; for Reduction in AHI: own data: sultiame Examples 1 and 2 (n = 3); for Reduction in AHI / Efficacy AHI reduction (rating 0-3) / Side effect cognitive dysfunction (C) (scale 0-3) / Side effect paresthesia (P) (scale 0-3): acetazolamide Example 2; for Efficacy AHI reduction (rating 0-3) / Side effect cognitive dysfunction (C) (scale 0-3) / Side effect paresthesia (P) (scale 0-3): own data: sultiame Examples 1 and 2, topiramate unpublished data
Description: The results from Example 1 and 2 are summarized in table 1, below, where the results are further compared with data reflecting the effect of acetazolamide, topiramate and zonisamide in sleep apnea.

Carbonic anhydrase (CA) = experiment: Carbonic anhydrase activity in venous blood from a patient with obstructive sleep apnea (pH curve AUC); type: biochemical, human; conditions: diluted hemolysed blood of one OSA patient
Experimental: Carbonic anhydrase (CA) activity was assessed in human plasma from an apnea patient using a method previously described in detail (Teng et al, Sleep 2016). […] The blood sample (antecubital vein) was collected in an EDTA-coated tube, stored within 30 min at −20° C. and subsequently transferred to −70° C. Prior to analysis, the sample was slowly thawed, refrozen and re-thawed on ice in order to obtain hemolysis. The assay was adapted from a method previously described by Everaert et al (ref in Teng et al, Sleep 2016). In detail, a buffer consisting of 0.02M HEPES, 0.02M MES, 0.035M KCl and 0.015M NaCl with a balanced capacity in the pH 6-8 range was prepared. The subsequent analysis was conducted on ice in order to maintain a temperature of around 0-1° C. A separate solution constituting of 200 ml of 0-1° C. distilled water was continuously flushed with 100% CO2 and kept at 0-1° C. for at least 30 min. […] The pH in the reaction vessel was continuously monitored at 1 Hz during 120 s. […] The intra- and inter assay variability was 5.0% and 7.6%, respectively. pH curves were plotted and analysed (FIG. 1). In order to reflect time of the catalysed reaction the area under the curve (AUC, range 802-837) was calculated as the sum of all pH assessments during 120 sec. […]

[2] = system: subjects with obstructive sleep apnea; experiment: Long term effect of sultiame and acetazolamide in obstructive sleep apnea, sleep studies (Example 2); conditions: for AHI at follow-up: sultiame 200 mg single daily dose for three months
[3] = system: patients with obstructive sleep apnea; set-up: key to Side effect paresthesia (P) (scale 0-3) / Side effect cognitive dysfunction (C) (scale 0-3): 1 = none; 2 = low; 3 = medium; 4 = high; conditions: cited from earlier work; for Reduction in AHI / Reported adverse events. Frequency (n/patient): literature: acetazolamide meta data from 9 publications (n = 268), zonisamide Eskandari et al. (n = 13); for Efficacy AHI reduction (rating 0-3) / Side effect cognitive dysfunction (C) (scale 0-3) / Side effect paresthesia (P) (scale 0-3): literature: acetazolamide meta data, zonisamide Eskandari et al.
[4] = cited from earlier work
healthy volunteers = experiment: Clinical trial on tolerability of a high dose of sultiame in healthy volunteers; type: in vivo, human
Experimental: Most earlier clinical trials have been carried out in patients diagnosed with epilepsy. The goal of this study was to investigate the tolerability of sultiame in non-epileptic patients.
The trial involved 16 healthy volunteers. […] The administration was carried out without ramping up the dose. There were only two reports of adverse events in this group of 16 volunteers (32 dosing occasions, 12.5% of individuals or 6.25% of dosing occasions). These adverse events were limited to short periods of headache, which occurred when the drug was administered without food. The headache resolved within a short time frame.

[5] = system: patient with obstructive sleep apnea; experiment: Repeated dosing of sultiame in obstructive sleep apnea, repeated sleep studies (Example 1); type: in vivo, human; conditions: for central AHI: baseline 3.2 n/h; for obstructive AHI: baseline 12.4 n/h; for AHI: baseline 16.6 n/h; for lowest saturation: baseline 87%; for mean oxygen saturation: baseline 95.3%
Description: Person, BMI 28.3 kg/m^2. The subject was a non-smoker and there was no history of cardiovascular or metabolic disease and no regular medication. This subject presented with a history of snoring, witnessed apneas, and increased daytime sleepiness. They had previously tested both CPAP and mandibular advancement therapy with moderate regression of symptoms. The subject had experienced intolerable side effects including dry airways and sneezing caused by CPAP therapy. They had experienced discomfort from the temporomandibular joints following use of an intraoral device for mandibular advancement.
There had been a weight gain corresponding to 2 kg during the last three years.
It was decided that sultiame should be tested. Repeated sleep studies were undertaken before and after therapy with sultiame.
This second assessment provided the following values: AHI 9.8 n/h (central AHI 2.2 n/h and obstructive AHI 7.6/h), mean oxygen saturation 95.8%, lowest saturation 89%, and periodic breathing pattern 10.1 minutes.
There had been a weight reduction corresponding to 1.2 kg

[6] = own data: acetazolamide Example 2, topiramate unpublished data (n = 4)
[7] = topiramate unpublished data (n = 4)
[8] = 100 mg orally once daily, after 5 days
[9] = sultiame 200 mg daily for three months, both subjects

For `CC1(C)O[C@@H]2[C@@H](CO[C@@]3(COS(N)(=O)=O)OC(C)(C)O[C@@H]23)O1` [Topiramate], which “Side effect total rating (T) (scale 0-3)” value [1] is on record?
The value was 3.7.

And the “Reported adverse events. Frequency (n/patient)” value [1, 6]?
Its value is 0.75/patient.

And the “Reduction in AHI” value [1, 7]?
Its value is 28.0%.

And the “Reduction in AHI” value ([1]; topiramate unpublished data (n = 4), listed as topiramate)?
The value was 28.0%.

What about the “Efficacy AHI reduction (rating 0-3)” value [1] of the same molecule?
Its value is 1 (5-<30% = 1).

What about the “Side effect cognitive dysfunction (C) (scale 0-3)” value [1] of the same molecule?
Its value is 4.

And the “Side effect paresthesia (P) (scale 0-3)” value [1]?
Its value is 3.

What does the source list for `CC(=O)Nc1nnc(S(N)(=O)=O)s1` [Acetazolamide]?
CA activity after compound (peak inhibition), arbitrary units 850-AUC (Carbonic anhydrase (CA); 0-1° C., 120 s, activity without compound 32, concentrations 1×10^−11 to 5×10^−9 M): 19.5 units; reduction of CA activity (Carbonic anhydrase (CA); reduction from 32 units): 39%; side effects: paraesthesia ([2]; acetazolamide 500 mg o.d., both subjects): both subjects developed peripheral paraesthesia; oxygen desaturation index (ODI) ([2]; first subject, acetazolamide 500 mg o.d., 10 days after start, before 16.6 n/h): 12.6 n/h; AHI ([2]; first subject, acetazolamide 500 mg o.d., 10 days after start, before 17.4 n/h): 13.4 n/h; oxygen desaturation index (ODI) ([2]; second subject, acetazolamide 500 mg o.d., 16 days after start, before 12.6 n/h): 9.2 n/h; AHI ([2]; second subject, acetazolamide 500 mg o.d., 16 days after start, before 15.2 n/h): 10.2 n/h; Side effect total rating (T) (scale 0-3) [1]: 2.7; Reported adverse events. Frequency (n/patient) [1, 6]: 1.0/patient; Reduction in AHI [1, 7]: 28.0%; Efficacy AHI reduction (rating 0-3) [1]: 1 (5-<30% = 1); Side effect cognitive dysfunction (C) (scale 0-3) [1]: 2; Side effect paresthesia (P) (scale 0-3) [1]: 4; Reduction in AHI [3]: 37.3%; Reported adverse events. Frequency (n/patient) [3]: 1.08/patient; Reduction in AHI ([3]; listed as acetazolamide): 37.3%; Efficacy AHI reduction (rating 0-3) [3]: 2 (30-<50% = 2); Side effect cognitive dysfunction (C) (scale 0-3) [3]: 2; Side effect paresthesia (P) (scale 0-3) [3]: 4

Which results are given for `NS(=O)(=O)Cc1noc2ccccc12` [Zonisamide]?
Side effect total rating (T) (scale 0-3) [1]: 3.3; Reduction in AHI [3]: 20.7%; Reported adverse events. Frequency (n/patient) [3]: 0.44/patient; Reduction in AHI ([3]; listed as zonisamide): 20.7%; Efficacy AHI reduction (rating 0-3) [3]: 1 (5-<30% = 1); Side effect cognitive dysfunction (C) (scale 0-3) [3]: 4; Side effect paresthesia (P) (scale 0-3) [3]: 2

For `NS(=O)(=O)c1ccc(N2CCCCS2(=O)=O)cc1` [Sultiame], which half-life in plasma [4] is on record?
Its half-life in plasma is “about 24 hrs”.

And the “tolerability at high doses” value (healthy volunteers; 200 mg without ramping up the dose, healthy volunteers)?
The value was “excellent tolerability”.

And the “reports of adverse events (short periods of headache, drug administered without food)” value (healthy volunteers; 200 mg, 16 volunteers, 32 dosing occasions)?
Its value is “two”.

What about the “adverse events, % of dosing occasions” value (healthy volunteers; 200 mg, 32 dosing occasions, 16 healthy volunteers) of the same molecule?
Its value is 6.25%.

What about the “adverse events, % of individuals” value (healthy volunteers; 200 mg, two times (with and without prior food intake), 16 healthy volunteers) of the same molecule?
Its value is 12.5%.

And the “daytime symptoms of sleepiness” value [5, 8]?
Its value is “general resolution of daytime symptoms of sleepiness”.

What about the “central AHI” value [5, 8] of the same molecule?
Its value is 2.2 n/h.

And the “obstructive AHI” value [5, 8]?
The value was 7.6 h⁻¹.

And the AHI [5, 8]?
Its AHI is 9.8 n/h.

What about the lowest saturation [5, 8] of the same molecule?
The lowest saturation was 89%.

And the mean oxygen saturation [5, 8]?
Its mean oxygen saturation is 95.8%.

What about the periodic breathing pattern ([5]; 100 mg orally once daily, after 5 days, baseline 14.3 minutes) of the same molecule?
Its periodic breathing pattern is 10.1 min.

What about the “central AHI” value ([5]; 200 mg once daily for 14 days) of the same molecule?
The value was 1.2 n/h.

And the “obstructive AHI” value ([5]; 200 mg once daily for 14 days)?
The value was 3.0 n/h.

What about the AHI ([5]; 200 mg once daily for 14 days) of the same molecule?
Its AHI is 4.2 n/h.

What about the lowest saturation ([5]; 200 mg once daily for 14 days) of the same molecule?
The lowest saturation was 90%.

And the mean oxygen saturation ([5]; 200 mg once daily for 14 days)?
The mean oxygen saturation was 96.7%.

What about the “periodic breathing pattern duration” value ([5]; 200 mg once daily for 14 days, baseline 14.3 minutes) of the same molecule?
Its value is 2.8 min.

And the “dose dependence of AHI reduction” value ([5]; 200 mg once daily versus 100 mg once daily)?
The value was “reduced AHI in a dose-dependent manner”.

And the AHI at follow-up ([2]; first subject, day 89, before 17.4 n/h)?
Its AHI at follow-up is 7.6 n/h.

And the AHI at follow-up ([2]; second subject, day 90, before 15.2 n/h)?
Its AHI at follow-up is 6.5 n/h.

What about the daytime sleepiness ([2]; sultiame 200 mg daily for three months, both cases) of the same molecule?
Its daytime sleepiness is “reduction of daytime sleepiness”.

And the “side effects: paraesthesia” value [2, 9]?
The value was “not reported”.

And the snoring [2, 9]?
Its snoring is “reduced snoring”.

And the tolerability [2, 9]?
Its tolerability is “well tolerated by both subjects”.

And the “effectiveness in decreasing sleep apnea versus acetazolamide” value ([2]; sultiame 200 mg daily versus acetazolamide 500 mg o.d.)?
The value was “considerably more effective than acetazolamide”.

What about the “Side effect total rating (T) (scale 0-3)” value [1] of the same molecule?
Its value is 1.

And the “Reduction in AHI” value [1, 7]?
Its value is 62.7%.

What about the “Reduction in AHI” value ([1]; topiramate unpublished data (n = 4), listed as sultiame) of the same molecule?
Its value is 62.7%.

What about the “Efficacy AHI reduction (rating 0-3)” value [1] of the same molecule?
Its value is 3 (≥50% = 3).

And the “Side effect cognitive dysfunction (C) (scale 0-3)” value [1]?
The value was 1.

What about the “Side effect paresthesia (P) (scale 0-3)” value [1] of the same molecule?
Its value is 1.

What about the “Reported adverse events. Frequency (n/patient)” value ([1]; sultiame, Examples 1 and 2 (n = 3)) of the same molecule?
Its value is 0% (AHI reduction 0-5 < % = 0).

And the “adverse effects after administration” value ([1]; sultiame, patients with obstructive sleep apnea, Examples 1 and 2)?
Its value is “not observed”.
